Test results published in article PMC10692721, “Drug discovery for heart failure targeting myosin-binding protein C” (The Journal of Biological Chemistry, 2023).
*1 amine or outer side, *2 acyl side, *3 side chain or, on linkers, in order; H or OH if unused. Where a SMILES comes first, the peptide text is derived from it. Bridges are numbered along the chain shown (N, C = ends). [ ]: non-standard residue; d: D form. The star is where a group is joined. Orn(4R-OH,5R-OH) = O=C([C@H](C[C@@H](O)[C@@H](O)N[*:3])N[*:1])[*:2]; Tetradecanoyl(10R,12S-Me2) = CC[C@H](C)C[C@H](C)CCCCCCCCC(=O)*; hTyr(3S-OH,4S-OH) = N[C@H](C(=O)O)[C@H](O)[C@@H](O)c1ccc(O)cc1; Gln(3R-OH) = NC(=O)C[C@@H](O)[C@H](N)C(=O)O; Pro(3S-OH) = O=C(O)[C@H]1NCC[C@@H]1O; Hyp = O=C(O)[C@@H]1C[C@@H](O)CN1

Key:
[1] = tested on: FMAL-actin/PKA-phosphorylated TMR-cC0-C2 interaction; experiment: FLT-FRET concentration-response assay, FMAL-actin plus PKA-phosphorylated TMR-cC0-C2; assay type: binding, human; conditions: phosphorylated cC0-C2
Description: Compounds identified as initial hits were further examined to determine the concentration–response curves for seven conditions ([1]): FMAL-actin alone identified actin-binding compounds that alter the FLT of FMAL-actin ([2]).
Fluorescence lifetime (FLT) measurements were acquired using a high-throughput FLT plate reader (Fluorescence Innovations, Inc) ([14], [27]), provided by Photonic Pharma LLC. […] The observed waveforms were analyzed as described previously ([15], [28]).
The primary hits were dissolved in DMSO to make a 10 mM stock solution, which was serially diluted in 96-well mother plates. Hits were screened at eight concentrations (0.5–100 μM). […] Compounds (1 μl) were transferred from the mother plates into 384-well plates using a Mosquito HV liquid handler (TTP Labtech Ltd, Hertfordshire, UK). The same procedure of dispensing as for the pilot screening was applied in the concentration-response assays. Concentration dependence of the FLT-FRET (E/EDMSO) or FLT-TMR (Δτ) change data was fit to a Hill equation only under certain conditions to help guide the eye (Fig. 4).

[2] = tested on: bovine cardiac (left ventricular) myofibrils; experiment: Cardiac myofibril ATPase assay; assay type: biochemical; conditions: 50 μM compound, pCa 8 to pCa 4
Description: Rabbit psoas and bovine cardiac myofibrils were prepared as described in our previous study ([17]). An enzyme-coupled, NADH-linked ATPase assay was used to measure skeletal and cardiac myofibril ATPase activity in 96-well microplates at 23 °C. Ionic strength was maintained below 0.2 M, so myofilaments remained insoluble and stable ([32]). To achieve optimal enzymatic activities, buffers for skeletal and cardiac myofibrils differed slightly ([33], [34]): skeletal in 50 mM MOPS, 100 mM KCl, 5 mM MgCl2, 1 mM EGTA, pH 7.0; cardiac in 20 mM MOPS, 35 mM NaCl, 5 mM MgCl2, 1 mM EGTA, pH 7.0. Each well in the microplate contained an assay mix of 0.84 mM phosphoenolpyruvate, 0.17 mM NADH, 10 U/vol pyruvate kinase, 20 U/vol lactate dehydrogenase. The concentration of free Ca^2+ was controlled by EGTA buffering ([35]). Myofibrils were dispensed in microplates with a multichannel pipette and were incubated with assay mix plus compound of interest for 20 min at 23 °C. The concentration of myofibrils used was 0.01 mg/ml for skeletal and 0.05 mg/ml for cardiac myofibrils. The assay was started upon the addition of ATP, at a final concentration of 2.1 mM (total volume to 200 μl), and absorbance was recorded at 340 nm in a SpectraMax Plus microplate spectrophotometer from Molecular Devices. The steady-state myofibrillar ATPase rate was measured from NADH oxidation, measured as the rate of decrease in absorption at 340 nm for 30 min, with absorption data collected every 15 s. All data and statistical analysis of steady-state kinetics were conducted with the OriginPro program. The results were fitted with the Hill equation:(6) […] is the ATPase rate and n is the Hill coefficient. ATPase activity is reported on the μmol ATP/mg protein/min scale. Average data are presented as mean ± SD. Sample means are derived from three different myofibril preps (N = 3), each done in duplicate (n = 6). The effects of compounds on ATPase activity of myofibrils were determined in the presence of 50 μM compound, across a 12-point pCa range from 4.0 (activation) to 8.0 (relaxation). The calcium sensitivity (pCa50) was determined by fitting the curves to the Hill equation. […] The normalized ATPase activity of the selected compounds can be found in Figure 6.

[3] = tested on: TMR-fC1-C2 (C1-C2 of fast skeletal MyBP-C); experiment: FLT-TMR concentration-response assay, fC1-C2; assay type: binding; conditions: 60 μM compound
Outline: (§1)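 Hits tested at eight concentrations (0.5–100 μM) and read on a high-throughput fluorescence lifetime plate reader. Hill fits applied only under certain conditions.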

[4] = tested on: TMR-cC0-C2 (C0-C2 fragment of human cMyBP-C); experiment: FLT-TMR concentration-response assay (FLT of TMR on cC0-C2, no actin); assay type: binding; conditions: 60 μM compound
Outline: as §1

[5] = tested on: FMAL-actin plus TMR-cC0-C2; experiment: Selleck library HTS, 473 nm excitation (FLT of FMAL-actin with TMR-cC0-C2, FLT-FRET); assay type: binding, human
Outline: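 Donor fluorescence lifetime was then recorded. Waveforms were fit to a single exponential, and ΔFLT was obtained after a moving-median plate-gradient correction (half-row window), rescaled by the median DMSO lifetime.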

[6] = tested on: FMAL-actin/TMR-fC1-C2 interaction; experiment: FLT-FRET concentration-response assay, FMAL-actin plus TMR-fC1-C2; assay type: binding
Outline: as §1

effect on FLT-FRET / binding between FMAL-actin and PKA-phosphorylated TMR-cC0-C2 (in words) [1]: decreasing the binding | effect on cardiac MF ATPase activity (in words) [2]: ATPase-activating effect | effect on FLT-FRET / binding between FMAL-actin and TMR-fC1-C2 (in words) [6]: increased the binding | increase in actin binding (fC1-C2-actin FRET) ([6]; skeletal MyBP-C): 24%
Structure (SMILES): CC[C@H](C)C[C@H](C)CCCCCCCCC(=O)N[C@H]1C[C@@H](O)[C@@H](O)NC(=O)[C@@H]2[C@@H](O)CCN2C(=O)[C@H]([C@H](O)CC(N)=O)NC(=O)[C@H]([C@H](O)[C@@H](O)c2ccc(O)cc2)NC(=O)[C@@H]2C[C@@H](O)CN2C(=O)[C@H]([C@@H](C)O)NC1=O [Pneumocandin B0] ({Tetradecanoyl(10R,12S-Me2)}-[Orn(4R-OH,5R-OH)]T[Hyp][hTyr(3S-OH,4S-OH)][Gln(3R-OH)][Pro(3S-OH)]; lactam 1-C)
cC0-C2/fC1-C2 (ratio of FLT changes) [3]: 1.1 | fC1-C2 FLT change (% change from DMSO, FLT of TMR-MyBP-C) [3]: 11.4% | cC0-C2/cC0-C2#P (ratio of FLT changes) [4]: 0.9 | cC0-C2 FLT change (% change from DMSO, FLT of TMR-MyBP-C) [4]: 12.4% | 473-nm Δτ, Repeat 1 ([5]; initial screen, 30 μM compound): -0.050 ns | 473-nm Δτ, Repeat 2 ([5]; initial screen, 30 μM compound): -0.053 ns | 473-nm z-score (based on avg Δτ) ([5]; robust z-score, hit threshold ±4, 30 μM compound): -2.83
